According to patent publication US9510593B2, “S-benzylthiouracil compounds and methods of enhancing plant root growth” (Valent BioSciences Corporation, priority 2014, dated 2016):
Entries after “also recorded” stand apart in the source; their conditions may differ. Read-outs that look alike come from different tables or passages of the source.

Assays:
Format in all cases: in vivo
[1] = system: rice; assay: Rice pouch assay: growth of primary root and shoot; settings: for Percent Change (rice primary root growth): compounds and water-soluble salts; for change in vivo at 10 ppm: Oryza sativa, 144 h, read-out: Percent Change in Primary Root Length in Rice; for Effect on rice root growth, in words: rice pouch assay, compared to control; for Percent Change in Primary Root Length of Rice: linkage changes
Method: Seeds were placed in germination pouches consisting of germination paper as an insert in a gas-permeable 16×14 cm plastic pouch (CYG Pouch; Mega International, St. Paul, Minn.). In pouch solution evaluation, S-Benzylthiouracil compounds or their salts were dissolved in a small volume of DMSO and added to sterile water with a maximum of 0.5% v/v DMSO at final dilution. The S-Benzylthiouracil solution was subsequently pipetted into the growth pouch, followed by the addition of seeds of the crop being tested. The pouches were arranged in a randomized complete block design in growth racks and placed in 19-liter polycarbonate food storage containers (Rubbermaid Commercial Products, Winchester, Va.). The sealed containers were held in an upright growth cabinet maintained at 25 C with a 12 hour light: 12 hour dark photoperiod. For rice, plants were harvested at 6 d, while in mungbean and corn, the plants were harvested at 4 d post sowing. Measurements were performed on the primary root and shoot of each seedling. The growth of the primary root of rice was examined in the pouch assay system. The results of the testing, presented as percent change in root length across all S-Benzylthiouracil compounds, are shown below.

[2] = system: tomato; assay: Tomato petri plate assay; settings: for Shoot Length / Root Length: 6 days after sowing; for Shoot Length: control 3.3; for Root Length: control 3.5; for change in vivo at 10 ppm: Solanum lycopersicum, 144 h, after 6 days of continuous exposure, read-out: Percent Increase (percent change in primary tomato root length); for Effect on tomato root growth, in words: continuous exposure
Method: For tomato, the plants were grown in disposable (150 mm) sterile plastic petri plates (Falcon, BD Biosciences, Franklin Lakes, N.J.). In the tomato assay, a single sheet of Whatman #1 filter paper was placed at the bottom of the plate, 15 tomato seeds were added, and 10 mL of treatment solution was added. At the end of 6 d, the 10 largest seedlings were selected for measurement from each plate. In each study, a minimum of 3 replicate plates were used. In tomato, several S-Benzylthiouracil compounds were tested to determine the effects on root growth.

[3] = system: mungbean; assay: Mungbean pouch assay: growth of primary root and shoot; settings: for change in vivo at 10 ppm: 96 h, read-out: Percent Change in Primary Root Length of Mungbean; for Effect on mungbean root (and shoot) growth, in words: mungbean pouch assay; for Shoot Length / Root Length: 4 days; for Shoot Length: control 4.9; for Root Length: control 6.1; for Percent Change in Primary Root Length: mungbean, linkage changes
Method: Seeds were placed in germination pouches consisting of germination paper as an insert in a gas-permeable 16×14 cm plastic pouch (CYG Pouch; Mega International, St. Paul, Minn.). In pouch solution evaluation, S-Benzylthiouracil compounds or their salts were dissolved in a small volume of DMSO and added to sterile water with a maximum of 0.5% v/v DMSO at final dilution. The S-Benzylthiouracil solution was subsequently pipetted into the growth pouch, followed by the addition of seeds of the crop being tested. The pouches were arranged in a randomized complete block design in growth racks and placed in 19-liter polycarbonate food storage containers (Rubbermaid Commercial Products, Winchester, Va.). The sealed containers were held in an upright growth cabinet maintained at 25 C with a 12 hour light: 12 hour dark photoperiod. For rice, plants were harvested at 6 d, while in mungbean and corn, the plants were harvested at 4 d post sowing. Measurements were performed on the primary root and shoot of each seedling. The growth of the primary root of mungbean was examined in the pouch assay system. The results of the testing, presented as percent change in root length across all the free S-Benzylthiouracil compounds is shown below. The following S-Benzylthiouracil compounds have benzyl substitutions as defined in Table 11 below.

[4] = 10 mg/liter, 6 days after sowing, untreated control 10.50
[5] = 30 mg/liter, 6 days after sowing, untreated control 10.50
[6] = 10 ppm (10 mg/L), benzyl ring substitutions, vs control
[7] = 10 ppm (10 mg/L), benzyl ring substitutions
[8] = 10 ppm equivalent, 6 days after sowing, control 2.96
[9] = 10 ppm equivalent, 6 days after sowing, control 8.61
[10] = 10 ppm (10 mg/L), uracil moiety substitutions, vs control
[11] = 10 ppm (10 mg/L), uracil moiety substitutions

In the case of [K+].[O-]c1ccnc(SCc2cccc(F)c2)n1 [Compound 1 K+ salt, Potassium Salt of S-(3-Fluorobenzyl)-2-thiouracil], the “Root Length” value ([1]; 10 mg/liter, 6 days after sowing, untreated control 9.67) is reported as 11.03 cm and the “Root Length” value ([1]; 30 mg/liter, 6 days after sowing, untreated control 9.67) is reported as 9.71 cm.
For [Na+].[O-]c1ccnc(SCc2ccccc2)n1 [Compound 2 Na+ salt, Sodium Salt of S-Benzyl-2-thiouracil], the “Root Length” value [1, 4] was 12.35 cm and the “Root Length” value [1, 5] was 13.03 cm.
For Oc1ccnc(SCc2ccccc2)n1 [Compound 2, 2-[(phenylmethyl)thio]-4(3H)-pyrimidinone], the “Shoot Length” value ([2]; 1 ppm) was 3.3 cm, the “Root Length” value ([2]; 1 ppm) was 3.8 cm and the “Shoot Length” value ([2]; 10 ppm) was 3.0 cm. For the same compound, the “Root Length” value ([2]; 10 ppm) was 3.8 cm, the change in vivo at 10 ppm ([2]; 10 ppm) was 23% and the “Effect on tomato root growth, in words” value [2] was “one of the most active compounds in tomato; also recorded: root length was increased in a dose-dependent fashion”. For the same compound, the “Effect on tomato root growth, in words” value ([2]; listed as S-Benzylthiouracil) was “active at promoting root growth”, the “Root Length” value [1, 4] was 12.44 cm and the “Root Length” value [1, 5] was 12.21 cm. For the same compound, the “Root Length” value ([1]; 1 ppm, 6 days after treatment, control 5.7) was 6.7 cm, the “Root Length” value ([1]; 10 ppm, 6 days after treatment, control 5.7) was 7.8 cm and the “Percent Change (rice primary root growth)” value ([1]; 10 ppm, 6 days after sowing) was 15.6%. For the same compound, the change in vivo at 10 ppm [1, 6] was 15.6%, the “Effect on rice root growth, in words” value [1] was “increased the root length compared to the control treatment” and the “Percent Change in Primary Root Length of Mungbean” value [3, 7] was 18.9%. It also gave a change in vivo at 10 ppm [3, 7] of 18.9%.
Oc1ccnc(SCc2ccc(F)cc2)n1 [Compound 3] was tested, and the change in vivo at 10 ppm ([2]; 10 ppm) was 2.8%, the “Shoot Length” value [1, 8] was 2.59 cm and the “Root Length” value [1, 9] was 9.38 cm. For the same compound, the change in vivo at 10 ppm [1, 6] was 13.9% and the change in vivo at 10 ppm [3, 7] was 10.4%.
With Oc1ccnc(SCc2ccccc2F)n1 [Compound 4] the change in vivo at 10 ppm [1, 6] was 13.5% and the change in vivo at 10 ppm [3, 7] was 17.7%.
Oc1ccnc(SCc2ccc(F)c(F)c2)n1 [Compound 5, S-(3,4-Difluorobenzyl)-2-thiouracil] was tested, and the change in vivo at 10 ppm ([2]; 10 ppm) was 23.4%, the change in vivo at 10 ppm [1, 6] was 13.4% and the change in vivo at 10 ppm [3, 7] was 17.6%.
Compound Oc1ccnc(SCc2cc(F)cc(F)c2)n1 [Compound 6, S-(3,5-Difluorobenzyl)-2-thiouracil] has a change in vivo at 10 ppm [1, 6] of 8.8% and a change in vivo at 10 ppm [3, 7] of 3%.
Compound COc1cccc(CSc2nccc(O)n2)c1 [Compound 7] has a change in vivo at 10 ppm [1, 6] of 2.5% and a change in vivo at 10 ppm [3, 7] of 17.5%.
Work on COc1ccc(CSc2nccc(O)n2)cc1 [Compound 8] yielded a change in vivo at 10 ppm [1, 6] of 0.4%.
Cc1cccc(CSc2nccc(O)n2)c1 [Compound 9] was tested, and the change in vivo at 10 ppm [1, 6] was -2.3% and the change in vivo at 10 ppm [3, 7] was 5.9%.
Oc1cc(O)nc(SCc2ccccc2)n1 [Compound 10] was tested, and the change in vivo at 10 ppm ([2]; 10 ppm) was 8.4%, the change in vivo at 10 ppm [1, 10] was 11.5% and the change in vivo at 10 ppm [3, 11] was 5.9%.
In the case of Oc1nccc(SCc2cccc(F)c2)n1 [Compound 11], the change in vivo at 10 ppm ([2]; 10 ppm) is reported as -34.8%, the “Effect on tomato root growth, in words” value [2] is reported as “root growth inhibition” and the change in vivo at 10 ppm [1, 10] is reported as 10.6%. The change in vivo at 10 ppm [3, 11] was 8.9%.
With CCOC(=O)c1cnc(SCc2cccc(F)c2)nc1O [Compound 12, S-(3-Fluorobenzyl)-5-carboxyethyl-2-thiouracil] the change in vivo at 10 ppm [1, 10] was 9.5%, the change in vivo at 10 ppm [3, 11] was -20.1% and the “Effect on mungbean root (and shoot) growth, in words” value [3] was “significant negative effect on root growth”.
For Oc1nc(SCc2cccc(F)c2)nc2[nH]cnc12 [Compound 13], the change in vivo at 10 ppm ([2]; 10 ppm) was 0.8%, the “Effect on tomato root growth, in words” value [2] was “root growth inhibition” and the change in vivo at 10 ppm [1, 10] was 8.7%. The change in vivo at 10 ppm [3, 11] was 4.5%.
Cc1cc(O)nc(SCc2ccccc2C)n1 [Compound 14] was tested, and the change in vivo at 10 ppm [1, 10] was 8.6% and the change in vivo at 10 ppm [3, 11] was 15.4%.
With Cc1cc(O)nc(SCc2ccccc2)n1 [Compound 15] the “Effect on tomato root growth, in words” value [2] was “root growth inhibition”, the “Percent Change in Primary Root Length in Rice” value [1, 10] was 7.6% and the change in vivo at 10 ppm [1, 10] was 7.6%. The “Shoot Length” value ([3]; 1 ppm) was 5.6 cm, the “Root Length” value ([3]; 1 ppm) was 6.9 cm and the “Shoot Length” value ([3]; 10 ppm) was 5.0 cm. For the same compound, the “Root Length” value ([3]; 10 ppm) was 8.5 cm, the change in vivo at 10 ppm [3, 11] was 36.2% and the “Effect on mungbean root (and shoot) growth, in words” value [3] was “greatest increases in mungbean root growth; also recorded: both root and shoot showed significant increases in growth”.
For Cc1cc(O)nc(SCc2c(Cl)cccc2Cl)n1 [Compound 16, S-(2,6-Dichlorobenzyl)-6-methyl-2-thiouracil], the change in vivo at 10 ppm ([2]; 10 ppm) was -7.2%, the “Shoot Length” value [1, 8] was 2.71 cm and the “Root Length” value [1, 9] was 9.31 cm. It also gave a change in vivo at 10 ppm [1, 10] of 5.5% and a change in vivo at 10 ppm [3, 11] of 6.6%.
In the case of Fc1cccc(CSc2ncccn2)c1 [Compound 17], the change in vivo at 10 ppm [1, 10] is reported as 5.1% and the change in vivo at 10 ppm [3, 11] is reported as 11.1%.
With Oc1cc(O)nc(SCc2cccc(F)c2)n1 [Compound 18] the change in vivo at 10 ppm ([2]; 10 ppm) was 15.4%, the “Percent Change (rice primary root growth)” value ([1]; 10 ppm, 6 days after sowing) was 4.0% and the change in vivo at 10 ppm [1, 10] was 4%. The change in vivo at 10 ppm [3, 11] was 11.3%.
Work on Nc1ccnc(SCc2cccc(F)c2)n1 [Compound 19] yielded a change in vivo at 10 ppm [1, 10] of 2.9%.
In the case of Cc1cc(O)nc(SCc2ccccc2Cl)n1 [Compound 20], the “Shoot Length” value ([1]; 1 ppm, 6 days after planting, control 1.7) is reported as 1.4 cm, the “Root Length” value ([1]; 1 ppm, 6 days after planting, control 5.4) is reported as 5.3 cm and the “Shoot Length” value ([1]; 2 ppm, 6 days after planting, control 1.7) is reported as 1.3 cm. For the same compound, the “Root Length” value ([1]; 2 ppm, 6 days after planting, control 5.4) was 4.7 cm, the “Shoot Length” value ([1]; 5 ppm, 6 days after planting, control 1.7) was 1.2 cm and the “Root Length” value ([1]; 5 ppm, 6 days after planting, control 5.4) was 4.6 cm. For the same compound, the “Shoot Length” value ([1]; 10 ppm, 6 days after planting, control 1.7) was 0.9 cm, the “Root Length” value ([1]; 10 ppm, 6 days after planting, control 5.4) was 3.8 cm and the change in vivo at 10 ppm [1, 10] was -6.9%. The “Effect on rice root growth, in words” value [1] was “significantly negative effect; also recorded: dose-dependent reductions in root and shoot growth” and the change in vivo at 10 ppm [3, 11] was 8.2%.
For Oc1ccnc(OCc2cccc(F)c2)n1 [Compound 21, 2-O-(3-fluorobenzyl)uracil], the “Percent Change in Primary Root Length of Rice” value (“Percent Change … of Rice” below) ([1]; 10 ppm (10 mg/L), vs control) was 6.0% and the “Percent Change in Primary Root Length” value ([3]; 10 ppm (10 mg/L)) was 9.1%.
For Oc1ccnc(SCCc2ccccc2)n1 [Compound 22], the “Percent Change … of Rice” value ([1]; 10 ppm (10 mg/L), vs control) was 5.3%, the “Effect on rice root growth, in words” value [1] was “modest enhancements in root growth” and the “Percent Change in Primary Root Length” value ([3]; 10 ppm (10 mg/L)) was 29.0%.
In the case of Oc1ccnc(SC/C=C/c2ccccc2)n1 [Compound 23], the change in vivo at 10 ppm ([2]; 10 ppm) is reported as -15.7%, the “Percent Change … of Rice” value ([1]; 10 ppm (10 mg/L), vs control) is reported as 2.3% and the “Effect on rice root growth, in words” value [1] is reported as “modest enhancements in root growth”.
Oc1ccnc(OCc2ccccc2)n1 [Compound 24, 2-O-Benzyluracil] was tested, and the “Percent Change … of Rice” value ([1]; 10 ppm (10 mg/L), vs control) was 2.2% and the “Percent Change in Primary Root Length” value ([3]; 10 ppm (10 mg/L)) was −1.3%.
Work on O=c1cc[nH]c(=O)[nH]1 [Uracil] yielded a change in vivo at 10 ppm ([2]; 10 ppm) of -21%.
